Columns and labels:
RSV [1] = system: RSV; set-up: method as in earlier work; details: HEp-2 cells, MOI 0.2, 48 h, MTT; CPE data supplied by Biota Pharmaceuticals ref 35; cited from earlier work
RSV F protein [2] = biological target: T1, RSV F protein (Human respiratory syncytial virus A, UniProt P03420); assay: Cell content mixing T7 luciferase fusion assay, recombinant F, 384-well; assay type: cell-based
T1 construct: expressed in transfected cells; host or cells: Cos7 cells (transiently transfected), co-plated with BsrT7 cells
T1 sequence (P03420 137-574): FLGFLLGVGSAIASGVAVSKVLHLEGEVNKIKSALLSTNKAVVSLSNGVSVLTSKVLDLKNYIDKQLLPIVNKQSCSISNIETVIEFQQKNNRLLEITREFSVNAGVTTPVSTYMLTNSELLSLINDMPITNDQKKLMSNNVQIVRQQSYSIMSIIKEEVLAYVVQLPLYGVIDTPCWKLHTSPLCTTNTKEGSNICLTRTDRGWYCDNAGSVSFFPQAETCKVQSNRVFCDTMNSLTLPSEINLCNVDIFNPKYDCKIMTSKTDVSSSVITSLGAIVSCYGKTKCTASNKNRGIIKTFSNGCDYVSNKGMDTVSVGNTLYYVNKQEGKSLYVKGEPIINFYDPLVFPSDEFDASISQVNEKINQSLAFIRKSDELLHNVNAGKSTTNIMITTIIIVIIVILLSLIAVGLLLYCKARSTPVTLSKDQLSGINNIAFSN
T1 sequence (P03420 26-109): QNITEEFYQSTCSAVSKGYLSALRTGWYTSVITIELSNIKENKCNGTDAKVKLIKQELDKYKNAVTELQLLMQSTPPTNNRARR
Protocol: (§1) The protocol is an adaptation of that described by Bagai and Lamb[29]. Cos7 cells were transfected with a plasmid containing Renilla luciferase under T7 promoter control (pGL80-T7RL) and an RSV F expression vector. For live virus fusion assay, transfection media was removed after 2 h and replaced with SF media containing RSV (MOI of 2). Two h post infection (4 h post initial transfection) cells were trypsinized and re-suspended to 8 × 10^5 cells/ml. Compounds were serially diluted in SF Opti-MEM media and added to opaque bottom, white microtitre plates (Corning) at 50 μl/well along with 25 μl of both Cos7 and BsrT7 cells added to each well to obtain a final concentration of 5 × 10^4 cells/well. After 24 h, media was exchanged with 50 μl/well Opti-MEM media supplemented with 2% FBS and 8 ng/ml Enduren Live Cell Substrate (Promega). After 6 h at 37 °C in a humidified incubator supplemented with 5% CO2, the plates were read using a Lucy 2 luminometer with 1 sec integration time. Assays were performed in triplicate.
(§2) 384-well fusion assays were setup as per 96-well protocol with the following changes: Cos7 and BsrT7 cells were seeded at a final concentration of 1 × 10^4 cells/well. Compound titration was performed in a Biomek NX Laboratory Automation Workstation and added to a final volume of 25 μl/well. Luciferase activity was determined using an EnVision Multilabel reader (PerkinElmer).

RSV F protein [3] = biological target: T1, RSV F protein; assay: recombinant F CEI fusion assay, 384-well; assay type: cell-based
Source text: (§3) Impedance assays were setup in parallel to microscopy based fluorescent protein cytoplasmic mixing and cell content mixing T7 driven fusion assays. For testing small molecule inhibitors see cell content mixing, T7 driven reporter fusion assay protocol for cell infection, transfection and plating method. All other steps were as listed below.
(§4) Cos7-G cells were transfected with the RSV F expression vector (pCICO-Fopt) in 6 well plates using lipofectamine LTX as per manufacturer’s instructions (Invitrogen) or infected with RSV (MOI of 2). Four hours post infection/transfection, cells were trypsinized and re-suspended to 8 × 10^5 cells/ml. E-Plates were pre-blanked and Cos7-G and Cos7-R cells were seeded together at a 1:1 ratio for a final cell density of 5 × 10^4 cells/well. Plates were placed into the SP station, incubated at 37 °C in 5% CO2 and impedance was recorded every 15 min over 72 h.
as §2

RSV [4] = assay: RSV CEI fusion assay, live virus, 96-well; assay type: cell-based, respiratory syncytial virus; details: for IC50: human respiratory syncytial virus, read-out: RSV CEI 96 IC50
Source text: as §3, §4, §1

RSV F protein [5] = biological target: T1, RSV F protein; assay: Cell content mixing T7 luciferase fusion assay, recombinant F, 96-well; assay type: cell-based
Protocol: as §1

RSV [6] = assay: Plaque-reduction neutralization (PRNT) assay, RSV; assay type: cell-based; details: human respiratory syncytial virus; RSV on vero cells; in Table S1 printed as ± followed by a range
RSV F protein [7] = biological target: T1, RSV F protein; assay: recombinant F CEI fusion assay, 96-well; assay type: cell-based; details: cells transfected with noncoding empty vector (eV)
Source text: as §3, §4
The protocol is an adaptation of that described by Bagai and Lamb[29]. Cos7 cells were transfected with a plasmid containing Renilla luciferase under T7 promoter control (pGL80-T7RL) and an RSV F expression vector. For live virus fusion assay, transfection media was removed after 2 h and replaced with SF media containing RSV (MOI of 2). […] After 6 h at 37 °C in a humidified incubator supplemented with 5% CO2, the plates were read using a Lucy 2 luminometer with 1 sec integration time. […]

Question: Which “CPE EC50” value (RSV [1]) does the source give for O=C(c1ccoc1)N1CCN2C(=O)c3cc[n+]([O-])cc3[C@]12c1ccc(Cl)cc1 [BTA-4] here?
Answer: Its value is -7.6 log10 M.

Question: And the IC50 (RSV F protein [2])?
Answer: Its IC50 is 7.94 µM.

Question: What about the IC50 (RSV F protein [3]) of the same molecule?
Answer: Its IC50 is 2.51 µM.

Question: What about the IC50 (RSV [4]) of the same molecule?
Answer: The IC50 was 0.0398 µM.

Question: And the IC50 (RSV F protein [5])?
Answer: The IC50 was 1 µM.

Question: Which “CPE EC50” value (RSV [1]) does the source give for O=C(c1ccc(F)cc1)N1CCN2C(=O)c3cc[n+]([O-])cc3C12c1ccc(Cl)cc1 (centres unmarked) [BTA-3] here?
Answer: The value was -6.8 log10 M.

Question: What about the IC50 (RSV F protein [2]) of the same molecule?
Answer: Its IC50 is 31.6 µM.

Question: What about the IC50 (RSV F protein [3]) of the same molecule?
Answer: The IC50 was 1 µM.

Question: What about the IC50 (RSV [4]) of the same molecule?
Answer: The IC50 was 0.2 µM.

Question: What about the IC50 (RSV F protein [5]) of the same molecule?
Answer: The IC50 was 2.51 µM.

Question: For Cc1ccc(CCCO)c(NCc2ccc3nc(NCCCN4CCOCC4)n(Cc4nc(C)ccc4O)c3c2)c1 [TMC-353121], which IC50 (RSV [6]) is on record?
Answer: Its IC50 is 0.0058 µM.

Question: And the “effect on cell impedance of control cells” value (RSV F protein [7])?
Answer: The value was “No effect on cell impedance”.

Question: What about the “change in cell impedance of control cells” value (RSV [4]; control (uninfected) cells) of the same molecule?
Answer: Its value is “No change in cell impedance”.

Question: What about the IC50 (RSV [4]) of the same molecule?
Answer: Its IC50 is 0.000794 µM.

Question: For Cc1ocnc1C(=O)N1CCN2C(=O)c3ccncc3C21C1CCOCC1 (centres unmarked) [BTA-6], which “CPE EC50” value (RSV [1]) is on record?
Answer: Its value is -8.5 log10 M.

Question: And the IC50 (RSV F protein [2])?
Answer: Its IC50 is 1 µM.

Question: And the IC50 (RSV F protein [3])?
Answer: The IC50 was 0.2 µM.

Question: What about the IC50 (RSV [4]) of the same molecule?
Answer: The IC50 was 0.00501 µM.

Question: And the IC50 (RSV F protein [5])?
Answer: Its IC50 is 0.0398 µM.

Question: What does the source list for Cc1ocnc1C(=O)N1CCN2C(=O)c3ccncc3[C@@]21c1ccc(Cl)cc1 [BTA-5]?
Answer: CPE EC50 (RSV [1]): -6.6 log10 M; IC50 (RSV F protein [2]): 79.4 µM; IC50 (RSV F protein [3]): 2.51 µM; IC50 (RSV [4]): 0.501 µM; IC50 (RSV F protein [5]): 12.6 µM

Question: What does the source list for O=C(c1ccc(F)cc1)N1CCN2C(=O)c3ccncc3C12c1ccc(Cl)cc1 (centres unmarked) [BTA-1]?
Answer: CPE EC50 (RSV [1]): -6.5 log10 M; IC50 (RSV F protein [2]): 158 µM; IC50 (RSV F protein [3]): 6.31 µM; IC50 (RSV [4]): 0.398 µM; IC50 (RSV F protein [5]): 3.98 µM

Question: For O=C1c2ccncc2[C@@]2(c3ccc(Cl)cc3)N1CCN2C(=O)C1CC1 [BTA-7], which “CPE EC50” value (RSV [1]) is on record?
Answer: Its value is -5.8 log10 M.

Question: What about the IC50 (RSV F protein [3]) of the same molecule?
Answer: The IC50 was 12.6 µM.

Question: What about the IC50 (RSV [4]) of the same molecule?
Answer: Its IC50 is 0.794 µM.

Question: And the IC50 (RSV F protein [5])?
Answer: Its IC50 is 39.8 µM.

Question: What does the source list for O=C(c1ccoc1)N1CCN2C(=O)c3ccncc3[C@]12c1ccc(Cl)cc1 [BTA-2]?
Answer: CPE EC50 (RSV [1]): -7.9 log10 M; IC50 (RSV F protein [2]): 2.51 µM; IC50 (RSV F protein [3]): 0.251 µM; IC50 (RSV [4]): 0.02 µM; IC50 (RSV F protein [5]): 0.158 µM

Source: publication PMC4792136, “A generic screening platform for inhibitors of virus induced cell fusion using cellular electrical impedance” (Scientific Reports, 2016)
